Test results: ChEMBL document CHEMBL1671737, “Impact of recA on levofloxacin exposure-related resistance development” (2010)
Active and inactive are the calls of the source. The calls are words filed in the database; no cut-off is given here.

Experiments:
Staphylococcus aureus [1] = assay: Antimicrobial activity against methicillin-resistant Staphylococcus aureus ASAU021 after 24 hrs by modified broth macrodilution method; conditions: ASAU021, 24 h
Staphylococcus aureus [2] = assay: Antimicrobial activity against recA-deficient Staphylococcus aureus ASAU022 after 24 hrs by modified broth macrodilution method; conditions: ASAU022, 24 h
Escherichia coli = assay: Antimicrobial activity against recA-deficient Escherichia coli MG1655 after 24 hrs by modified broth macrodilution method; assay type: functional; conditions: MG1655, 24 h
Staphylococcus aureus [3] = assay: Bactericidal activity against recA-deficient Staphylococcus aureus ASAU022 assessed as induction of slow growth rate at 0.5 times MIC by time kill study; assay type: functional, organism-based
Staphylococcus aureus [4] = assay: Bactericidal activity against recA-deficient Staphylococcus aureus ASAU022 assessed as induction of increase bacterial kill rate at 2 times MIC by time kill study; assay type: functional, organism-based
Staphylococcus aureus [5] = assay: Antimicrobial activity against methicillin-resistant Staphylococcus aureus ASAU021 infected in in vitro hollow fiber infection model assessed as suppression of microbial resistance at AUC/MIC ratio of >32; assay type: functional, organism-based
Staphylococcus aureus [6] = assay: Antimicrobial activity against recA-deficient Staphylococcus aureus ASAU022 infected in in vitro hollow fiber infection model assessed as suppression of microbial resistance at AUC/MIC ratio of >23; assay type: functional, organism-based
Staphylococcus aureus [7] = assay: Antimicrobial activity against recA-deficient Staphylococcus aureus ASAU022 infected in in vitro hollow fiber infection model assessed as suppression of microbial resistance at AUC/MIC ratio of 31; assay type: functional, organism-based

C[C@H]1COc2c(N3CCN(C)CC3)c(F)cc3c(=O)c(C(=O)O)cn1c23.C[C@H]1COc2c(N3CCN(C)CC3)c(F)cc3c(=O)c(C(=O)O)cn1c23.O [LEVOFLOXACIN]
MIC (Staphylococcus aureus [1]): 1 µg/mL
MIC (Staphylococcus aureus [2]): 0.25 µg/mL
MIC (Escherichia coli): 0.004 µg/mL
inhibition (Staphylococcus aureus [3]): Active
inhibition (Staphylococcus aureus [4]): Active
Activity (Staphylococcus aureus [5]): Active
Activity (Staphylococcus aureus [6]): Active
Activity (Staphylococcus aureus [7]): Active
